Test systems include COLO 205; SF-539; OVCAR-8; SF-268; TK-10; SK-OV-3; MOLT-4; M14; NCI-H226; SF-295; SNB-19; HCT-116; CAKI-1; SK-MEL-28; HCC 2998; KM12; K562; A549; RPMI-8226; PC-3.
Holding throughout (test): NCI anticancer screen, dose series, 48 h

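Assay format: 96-well plates, 48-hour exposure. The concentration for 50% growth inhibition is given as GI50.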 Active and inactive are the calls of the source. Rule as the data show it: active = GI50 up to about 1.1 µM and inactive = higher.

This note sets out measurements from ChEMBL document CHEMBL1201862, “PubChem BioAssay data set” (2004).

In the case of `O=C(O)CCC(=O)OCN1C(=O)C2C3C=CC(C2C1=O)C1C2C(=O)N(COC(=O)CCC(=O)O)C(=O)C2C31` (stereo not given), the GI50 in the assay on COLO 205 is > 57.8 µM (inactive); in the assay with SF-539, > 100 µM (inactive); in the assay with OVCAR-8, 56.9 µM (inactive); in the assay on SF-268 it was > 78.9 µM (inactive); in the assay on TK-10 it was > 100 µM (inactive); in the assay on SK-OV-3 it was > 100 µM (inactive). Besides, the GI50 was > 90.4 µM (inactive) with MOLT-4; > 100 µM (inactive) in the assay on M14; > 100 µM (inactive) in the assay with NCI-H226; > 100 µM (inactive) with SF-295; > 100 µM (inactive) in the assay on SNB-19; > 37.8 µM (inactive) in the assay on HCT-116. For the same compound, the GI50 in the assay on CAKI-1 is > 100 µM (inactive); with SK-MEL-28, > 100 µM (inactive); in the assay with HCC 2998, > 100 µM (inactive); in the assay with KM12, 97.5 µM (inactive); with K562 it was > 100 µM (inactive); in the assay with A549 it was > 100 µM (inactive). In addition, the GI50 in the assay with RPMI-8226 was 21.4 µM (inactive).
Regarding `CCC(/C(=N\Nc1c(Cl)cc(Cl)cc1Cl)c1ccccc1)n1ccnc1C` (stereo not given), the GI50 in the assay with COLO 205 is 11.6 µM (inactive); in the assay on SF-539, 16.2 µM (inactive); in the assay with OVCAR-8 it was 12.9 µM (inactive); with SF-268, 17.2 µM (inactive); in the assay on TK-10, 14.3 µM (inactive); with SK-OV-3, 18.4 µM (inactive). The GI50 was 5.41 µM (inactive) with MOLT-4; 13.3 µM (inactive) with M14; 15.2 µM (inactive) with NCI-H226; 11.5 µM (inactive) with SF-295; 14.4 µM (inactive) in the assay with SNB-19; 7.05 µM (inactive) in the assay with HCT-116. For the same compound, the GI50 is 11 µM (inactive) in the assay with CAKI-1; 14.7 µM (inactive) in the assay on SK-MEL-28; 3.66 µM (inactive) in the assay on HCC 2998; 10.4 µM (inactive) with KM12; 5.07 µM (inactive) in the assay with K562; 13.8 µM (inactive) in the assay on A549. In addition, the GI50 in the assay with RPMI-8226 is 3.99 µM (inactive).
Take `COC(=O)C(=O)C(C(=O)C(=O)Nc1cc(Cl)c(Cl)cc1Cl)c1nc2ccc([N+](=O)[O-])cc2nc1O` (stereo not given): the GI50 in the assay on COLO 205, in the assay on SF-539, in the assay with OVCAR-8, with SF-268, in the assay on TK-10 and in the assay on SK-OV-3 was > 100 µM (inactive) in each case. Further, the GI50 in the assay with MOLT-4, in the assay on M14, in the assay on NCI-H226, in the assay on SF-295, in the assay with SNB-19 and in the assay with HCT-116 was > 100 µM (inactive) throughout. Moreover, the GI50 was 60.8 µM (inactive) in the assay on CAKI-1; > 100 µM (inactive) with SK-MEL-28; > 100 µM (inactive) in the assay on HCC 2998; > 100 µM (inactive) in the assay on KM12; > 100 µM (inactive) in the assay with K562; > 100 µM (inactive) in the assay with A549. The GI50 in the assay on RPMI-8226 is > 100 µM (inactive).
Regarding `COc1ccc(C(C)Nc2cc(OC)c(OC)c(OC)c2)cc1` (stereo not given), the GI50 is 2.48 µM (inactive) with COLO 205; 3.1 µM (inactive) with SF-539; 7.16 µM (inactive) in the assay on OVCAR-8; 2.9 µM (inactive) with SF-268; > 29.7 µM (inactive) with TK-10; 4.4 µM (inactive) with SK-OV-3. Also, the GI50 in the assay with MOLT-4 was 4.61 µM (inactive); in the assay on M14, 6.21 µM (inactive); in the assay with NCI-H226 it was 14.8 µM (inactive); in the assay with SF-295, 2.3 µM (inactive); with SNB-19, > 25.2 µM (inactive); in the assay with HCT-116 it was 3.58 µM (inactive). Also, the GI50 in the assay on CAKI-1 is 4.23 µM (inactive); with SK-MEL-28, 3.24 µM (inactive); in the assay on HCC 2998, 10.3 µM (inactive); in the assay with KM12, 2.63 µM (inactive); in the assay on K562, 2.19 µM (inactive); in the assay with A549, 5.62 µM (inactive). For the same compound, in the assay with RPMI-8226, the GI50 was 3.86 µM (inactive).
Consider `O=C1OCC2C1C1c3ccccc3C(O)c3ccccc3C21` (stereo not given), for which the GI50 in the assay on COLO 205, in the assay with SF-539, in the assay with OVCAR-8, with SF-268, in the assay on TK-10 and in the assay with SK-OV-3 was > 100 µM (inactive) throughout. The GI50 in the assay with MOLT-4, in the assay with M14, in the assay with NCI-H226, with SF-295, in the assay with HCT-116 and in the assay with CAKI-1 was > 100 µM (inactive) each time. Further, the GI50 in the assay on SK-MEL-28, in the assay on HCC 2998, in the assay with KM12, in the assay with K562, with A549 and with RPMI-8226 was > 100 µM (inactive) throughout.
For the compound `COC1=C(C(=O)OC(C)(C)C)C23CCCCC2(C(C(=O)OC(C)(C)C)=C(OC)C3C(=O)OC(C)(C)C)C1C(=O)OC(C)(C)C` (stereo not given), the GI50 with COLO 205 was 10.4 µM (inactive); in the assay with SF-539, 48.3 µM (inactive); with OVCAR-8, 59.6 µM (inactive); in the assay with SF-268 it was > 100 µM (inactive); in the assay with TK-10 it was > 100 µM (inactive); in the assay on SK-OV-3, > 100 µM (inactive). Moreover, the GI50 in the assay on MOLT-4 was 6.46 µM (inactive); with M14, 7.89 µM (inactive); in the assay on NCI-H226 it was 42.7 µM (inactive); in the assay on SF-295, 4.78 µM (inactive); with SNB-19, > 100 µM (inactive); in the assay with HCT-116 it was 14.2 µM (inactive). Also, the GI50 in the assay with CAKI-1 is > 100 µM (inactive); in the assay on HCC 2998 it was 53.6 µM (inactive); in the assay with KM12, 34 µM (inactive); in the assay with K562 it was 9.64 µM (inactive); with A549, 23 µM (inactive); with RPMI-8226 it was 8.47 µM (inactive).
Turning to `O=C(CCc1cc(-c2ccc(F)cc2)n[nH]1)N(Cc1ccccc1)Cc1ccccc1`, the GI50 with COLO 205, in the assay with SF-539, with OVCAR-8, in the assay with SF-268, in the assay on TK-10 and with SK-OV-3 was > 100 µM (inactive) in each case. Besides, the GI50 in the assay with MOLT-4, in the assay with M14, with NCI-H226, in the assay with SF-295, in the assay with SNB-19 and with HCT-116 was > 100 µM (inactive) throughout. Also, the GI50 with CAKI-1, with SK-MEL-28, in the assay on HCC 2998, with KM12, in the assay on K562 and in the assay with A549 was > 100 µM (inactive) in each case. Also, in the assay on RPMI-8226, the GI50 is > 100 µM (inactive).
As for `Nc1nnc(NC(=O)C2=NS(=O)(=O)c3cc(S(N)(=O)=O)c(Cl)cc3N2)[nH]1`, the GI50 in the assay on COLO 205, in the assay on SF-539, in the assay on SF-268, in the assay with TK-10, in the assay with SK-OV-3 and in the assay on MOLT-4 was > 100 µM (inactive) throughout. Besides, the GI50 in the assay with M14, in the assay on NCI-H226, with SF-295, with SNB-19, in the assay with HCT-116 and in the assay with CAKI-1 was > 100 µM (inactive) in each case. Moreover, the GI50 in the assay on SK-MEL-28 is > 100 µM (inactive); in the assay with HCC 2998 it was 0.752 µM (active); in the assay on KM12, > 100 µM (inactive); in the assay with K562 it was > 100 µM (inactive); in the assay with A549, > 100 µM (inactive); in the assay on RPMI-8226, > 100 µM (inactive).
For `Cc1cc(C)c(S(=O)(=O)N2CCCN(S(=O)(=O)c3c(C)cc(C)cc3C)OCCCO2)c(C)c1`, the GI50 in the assay on COLO 205, in the assay on OVCAR-8, in the assay with SF-268, in the assay with TK-10, in the assay with SK-OV-3 and in the assay on MOLT-4 was > 100 µM (inactive) each time. Moreover, the GI50 with M14, in the assay on NCI-H226, in the assay on SF-295, in the assay with SNB-19, in the assay with HCT-116 and in the assay with CAKI-1 was > 100 µM (inactive) each time. The GI50 was > 100 µM (inactive) in the assay on SK-MEL-28; > 100 µM (inactive) with KM12; > 100 µM (inactive) with K562; > 100 µM (inactive) with A549; 89.3 µM (inactive) with PC-3.
Regarding `COc1c(C)c2c(c3c1c(=O)c1ccccc1n3C)C=CC(C)(C)O2`, the GI50 is 30.7 µM (inactive) in the assay on COLO 205; 19.3 µM (inactive) in the assay with SF-539; 25.6 µM (inactive) in the assay on OVCAR-8; 26.4 µM (inactive) in the assay on SF-268; 48.3 µM (inactive) in the assay with TK-10; 12.7 µM (inactive) with SK-OV-3. The GI50 with MOLT-4 is 19.5 µM (inactive); in the assay with M14, 15.5 µM (inactive); with NCI-H226, 36.7 µM (inactive); in the assay with SF-295 it was 17.9 µM (inactive); in the assay on SNB-19, 41.3 µM (inactive); in the assay on HCT-116, 18.5 µM (inactive). The GI50 is 26.2 µM (inactive) in the assay with CAKI-1; 22 µM (inactive) in the assay with SK-MEL-28; 28.4 µM (inactive) in the assay with HCC 2998; 17.9 µM (inactive) in the assay on KM12; 13.4 µM (inactive) with K562; 5.41 µM (inactive) in the assay with A549. The GI50 in the assay with RPMI-8226 is 9.02 µM (inactive).
